Laboratory results: patent publication US20040198707A1, “Means and method for hormonal contraception” (priority 2001, published 2004)

test: conversion factors for progestogens: amount equivalent to a given amount of levonorgestrel; conditions: estimate of the amount of progestogen equivalent to a given amount of levonorgestrel (levonorgestrel = 1)
From the text: In order to determine for a specific biogenic estrogen or synthetic estrogen the amounts that are equivalent to a cited amount of ethinyl estradiol or 17beta-estradiol, the method described by Allen and Doisy may suitably be used (Allen A., Doisy E. A., “An ovarian hormone. Preliminary report on its localization, extraction and partial purification, and action in test animals. JAMA (1923), 81, 819-821). Similarly, in order to determine for a given progestogen the amount equivalent to cited amount of levonorgestrel the method originally described by McPhail can be used (Mc Phail M. K. “The assay of progestin” J Physiol (1934), 83, 145-156). A more recent description of this method can be found in an article written by Overbeek G. A., de Visser J. “A new substance with progestational activity”, Acta Endocrinol (1956), 22,318-329. It is noted that the aforementioned methods will provide useful indications about the anticipated estrogen potency or progestogen potency of a particular hormone. However, to accurately determine the equivalent amounts that are referred to above, it is advisable to additionally conduct in vivo studies in human females.
For guidance the table below provides the conversion factors for a number of progestogens that may suitably be used in the method of the invention. These conversion factors may be used to calculate, for each progestogen mentioned in the table, an estimate of the amount of said progestogen which is equivalent to a given amount of levonorgestrel.

Question: Which Conversion factor does the source give for `C#C[C@]1(O)CC[C@H]2[C@@H]3CCC4=CC(=O)CC[C@@H]4[C@H]3CC[C@@]21C` [norethisterone] here?
Answer: Its Conversion factor is 7.

Question: With `C[C@]12CCC(=O)C=C1[C@@H]1C[C@@H]1[C@H]1[C@@H]3[C@@H]4C[C@@H]4[C@@]4(CCC(=O)O4)[C@@]3(C)CC[C@@H]12` [drospirenone] as the compound, how does the Conversion factor read?
Answer: The Conversion factor was 20.

Question: With `C#C[C@]1(OC(C)=O)CC[C@H]2[C@@H]3CCC4=CC(=NO)CC[C@@H]4[C@H]3CC[C@@]21CC` (mixture of isomers) [norgestimate] as the compound, how does the Conversion factor read?
Answer: Its Conversion factor is 1.7.

Question: For `CC(=O)[C@H]1CC[C@H]2[C@@H]3C=CC4=CC(=O)CC[C@@]4(C)[C@@H]3CC[C@]12C` [dydrogesterone], which Conversion factor is on record?
Answer: Its Conversion factor is 133.
